Values after ≈ are worked out from the molar mass of the structure shown.
Columns and labels:
DNA gyrase = target: T1, DNA gyrase (Escherichia coli, UniProt P0AES4+P0AES6); test: Inhibition of DNA gyrase activity (DNA gyrase supercoiling assay, relaxed pUC18 plasmid as substrate); type: biochemical, E. coli H560
T1 construct: supercoiling of relaxed pUC18
Method: A. Inhibition of DNA gyrase activity
The inhibition of DNA gyrase activity was measured using a DNA gyrase supercoiling assay according to R. Otter & N. Cozzarelli: Methods in Enzymology, Vol. 100, pp 171-180 (1983). DNA gyrase was isolated from E. coli H560, and relaxed pUC18 plasmid was used as substrate. The activities as regards inhibition of DNA gyrase activity, expressed as maximum non-effective concentration of the test compound (MNC in μg/ml) are compiled in the following Table 1: […]

E. coli B = test: Antibacterial activity in vitro (agar dilution); type: cell-based; details: Escherichia coli, agar dilution (MuellerHinton agar), inoculum 10^4 CFU/spot, read-out: minimum inhibitory concentration (MIC)
P. aeruginosa 799/61 = test: Antibacterial activity in vitro (agar dilution); type: cell-based; details: Pseudomonas aeruginosa, agar dilution (MuellerHinton agar), inoculum 10^4 CFU/spot, read-out: minimum inhibitory concentration (MIC)
S. aureus 25923 = test: Antibacterial activity in vitro (agar dilution); type: cell-based; details: Staphylococcus aureus, agar dilution (MuellerHinton agar), inoculum 10^4 CFU/spot, read-out: minimum inhibitory concentration (MIC)
S. aureus Smith = test: Antibacterial activity in vitro (agar dilution); type: cell-based; details: Staphylococcus aureus, agar dilution (MuellerHinton agar), inoculum 10^4 CFU/spot, read-out: minimum inhibitory concentration (MIC)
S. epidermidis 16-2 = test: Antibacterial activity in vitro (agar dilution); type: cell-based; details: Staphylococcus epidermidis, 162, agar dilution (MuellerHinton agar), inoculum 10^4 CFU/spot, read-out: minimum inhibitory concentration (MIC)
S. pyogenes 15 = test: Antibacterial activity in vitro (agar dilution); type: cell-based; details: Streptococcus pyogenes, agar dilution (MuellerHinton agar), inoculum 10^4 CFU/spot, read-out: minimum inhibitory concentration (MIC)
S. faecalis 6 = test: Antibacterial activity in vitro (agar dilution); type: cell-based; details: Enterococcus faecalis, agar dilution (MuellerHinton agar), inoculum 10^4 CFU/spot, read-out: minimum inhibitory concentration (MIC)

T1 sequence (P0AES4 whole entry, one chain of several): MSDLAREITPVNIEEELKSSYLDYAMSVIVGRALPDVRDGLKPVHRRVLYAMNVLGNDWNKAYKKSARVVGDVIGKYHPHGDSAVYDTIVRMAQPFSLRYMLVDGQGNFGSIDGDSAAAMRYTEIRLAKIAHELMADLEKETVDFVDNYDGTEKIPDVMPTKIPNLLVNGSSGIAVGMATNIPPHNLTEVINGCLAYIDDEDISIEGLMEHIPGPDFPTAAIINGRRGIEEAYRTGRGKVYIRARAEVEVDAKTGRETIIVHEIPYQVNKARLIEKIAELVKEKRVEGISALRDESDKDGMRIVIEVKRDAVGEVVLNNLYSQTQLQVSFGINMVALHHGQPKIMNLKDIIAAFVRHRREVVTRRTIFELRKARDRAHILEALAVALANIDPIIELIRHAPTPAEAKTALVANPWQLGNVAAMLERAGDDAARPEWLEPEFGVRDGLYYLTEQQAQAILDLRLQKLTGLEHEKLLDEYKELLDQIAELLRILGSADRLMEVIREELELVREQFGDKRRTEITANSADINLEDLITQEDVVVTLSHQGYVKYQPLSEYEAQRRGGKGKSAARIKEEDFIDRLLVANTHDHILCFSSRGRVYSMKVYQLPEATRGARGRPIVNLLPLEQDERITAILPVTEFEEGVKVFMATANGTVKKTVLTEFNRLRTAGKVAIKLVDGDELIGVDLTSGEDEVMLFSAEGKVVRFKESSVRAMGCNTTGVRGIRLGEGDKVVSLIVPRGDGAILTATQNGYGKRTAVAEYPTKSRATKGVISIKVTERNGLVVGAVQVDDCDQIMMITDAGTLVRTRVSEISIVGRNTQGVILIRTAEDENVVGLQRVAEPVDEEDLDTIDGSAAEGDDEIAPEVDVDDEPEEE

Compound: COC(=O)[C@@H]1CSCc2c(O)cc(OC)c(C)c2C(=O)OCCCCC(=S)N1 [Example 23, (R)-16-hydroxy-14-methoxy-13-methyl-12-oxo-6-thioxo-1,3,4,5,6,7,8,9,10,12-decahydro-11,2,5-benzoxathiaazacyclotetradecine-4-carboxylic acid methyl ester]
- maximum non-effective concentration of the test compound (MNC) (DNA gyrase): 0.01 µg/mL
- MIC (E. coli B): 16 µg/mL (≈ 37.4 µM)
- MIC (P. aeruginosa 799/61): 8 µg/mL (≈ 18.7 µM)
- MIC (S. aureus 25923): 0.5 µg/mL (≈ 1.17 µM)
- MIC (S. aureus Smith): 0.25 µg/mL (≈ 0.585 µM)
- MIC (S. epidermidis 16-2): 0.12 µg/mL (≈ 0.281 µM)
- MIC (S. pyogenes 15): 2 µg/mL (≈ 4.68 µM)
- MIC (S. faecalis 6): 1 µg/mL (≈ 2.34 µM)

Source: patent US5594135A, “Tricyclic DNA gyrase inhibitors” (Hoffmann-La Roche Inc., priority 1994, dated 1997)
